“Also recorded” adds a separate entry of the source.
Assay: Photostability test in Q-Sun Xenon Test Chamber (accelerated photodegradation), LC/MSD quantitation
Format: physicochemical
Conditions: for percent Compound 1 remaining: 10 ppm; for effect of sorbate on photostability: 250 ppm potassium sorbate versus no photostabilizer; for effect of sorbate on photostability / rate of degradation, trend with pH: 10 ppm Compound 1 or 5 ppm Compound 2; for rate of degradation, trend with pH: no photostabilizer, pH 2.8, 4.0, 5.0, 7.1; for percent Compound 2 remaining: 5 ppm
Procedure: Aqueous buffer solution at pH 7.1 contains 50 mM potassium dihydogen phosphate and ˜32 mM sodium hydroxide (solutions of 1.0 M hydrochloric acid and 1.0 M sodium hydroxide are used to adjust pH). Aqueous buffer solution at pH 4.0 contains 50 mM citric acid monosodium salt and ˜7.4 mM sodium hydroxide (solutions of 1.0 M hydrochloric acid and 1.0 M sodium hydroxide are used to adjust pH). Aqueous buffer solution at pH 2.8 contains 50 mM citric acid and ˜16 mM sodium hydroxide (solutions of 1.0 M hydrochloric acid and 1.0 M sodium hydroxide are used to adjust pH). Aqueous buffer solution at pH 5.0 contains 50 mM acetic acid and ˜32 mM sodium hydroxide (solutions of 1.0 M hydrochloric acid and 1.0 M sodium hydroxide are used to adjust pH). All the buffers also contained 30 ppm ethylenediaminetetraacetic acid (EDTA).
The stock solutions of the test compounds at 10 mM for compound I and at 2000 ppm for compound II are made by dissolving the compounds in ethanol and water with 0.2% sodium bicarbonate, respectively. The solutions of the stabilizers are made by dissolving the materials in the aqueous buffers. The stock solutions are then diluted to 5 or 10 ppm with the stabilizer solutions to prepare the test solution and 10-mL aliquots of the solutions are transferred to 20-mL clear glass vial for testing.
Accelerated photodegradation was studied using a Q-Sun Xenon Test Chamber (Q-Lab Model No. Xe-1-SC) at an irradiance setting of 350 mW/m^2 at 340 nm and temperature of 25 degrees Celsius. To put this in perspective, 24 hours of constant Q-Sun irradiation at these settings is approximately equivalent to 12.4 days of direct sunlight in the southwestern United States. At 0, 1, 2, 4, 6 and 24 hours from the beginning of the radiation, a 0.4-mL aliquot from each vial is pippeted out to a 1-mL glass insert for analysis.
The samples are analyzed using an Agilent 1290 LC/MSD equipped with a diode-array detector (DAD). The peak areas from the MSD chromatograms are used for quantitation, and the photostability is shown by plotting the percentages of the test compound which remains intact at all time points. The peak areas from the DAD chromatograms are used for quantitation for stabilizers with concentration at […] or higher. The instrument conditions are listed below. • Column: Water Acquity HSS T3 C18 1.8 μm, 2.1×30 mm • Column Temperature: 30° C. • Auto-sampler Temperature: Room temperature • Mobile Phase A: 0.1% formic acid in water • Mobile Phase B: 0.1% formic acid in acetonitrile • Gradient: 0-1 min, linear gradient 5-50% B; 1.0-1.2 min, linear gradient 50-100% B; 1.2-2.0 min, 100% B; flow rate is 1.2 mL/min, and Post time is 0.5 min. • Injection volume: 10 uL • MSD ion source: APCI • MSD Signal settings: Positive, selected ion monitoring (SIM) at the mass of the expected molecular ions. • UV detection wavelength: 230 nm. • MSD detection start time: 0.65 min
(§1) A Q-Sun Xenon Test Chamber (Q-Lab Model No. Xe-1-SC), which reproduces the entire spectrum of natural sunlight, was used to study the photostability of Compound 1 in various mediums (with or without photostabilizers). The equivalent sunlight exposure time for 24 hours in the Q-Sun at a constant temperature of 25° C. and irradiance of 450 mW/m^2 @ 340 nm is estimated to be equivalent to approximately 15.9 days of direct sunlight in the Southwestern United States.
as §1, with “Compound 2” for “Compound 1”

[1] = 250 ppm potassium sorbate, pH 4.0, after 4 hours exposure
[2] = absence of photostabilizer, pH 7.1, after 4 hours exposure
[3] = absence of sorbate, pH 2.8, after 4 hours exposure
[4] = absence of sorbate, pH 4.0, after 4 hours exposure

SMILES | percentage of Compound 1 remaining (10 ppm Compound 1, no photostabilizer, all pH values (2.8, 4.0, 5.0, 7.1), after 4 hours light exposure, 25° C.) | percent Compound 1 remaining [1] | percent Compound 1 remaining [2] | percent Compound 1 remaining [3] | percent Compound 1 remaining [4] | effect of sorbate on photostability | rate of degradation, trend with pH | percentage of Compound 2 remaining (5 ppm Compound 2, no photostabilizer, all pH values (2.8, 4.0, 5.0, 7.1), after 4 hours light exposure, 25° C.) | percent Compound 2 remaining [1] | percent Compound 2 remaining (250 ppm potassium sorbate, pH 5.0, after 4 hours exposure) | percent Compound 2 remaining [2] | percent Compound 2 remaining [3] | percent Compound 2 remaining [4]
CCCNC(=O)C(C)(C)COc1cccc2c1C(N)=NS(=O)(=O)N2 [Compound 1, 3-(4-Amino-2,2-dioxide-1H-benzo[c][1,2,6]thiadiazin-5-yloxy)-2′,2′-dimethyl-N-propylpropanamide] | less than 20% | about 47% | no compound remained | about 14% | about 10% | remarkably improved stability to photo-degradation; also recorded: significantly enhances the photostability | decreases with decreasing pH | – | – | – | – | – | –
CC(C)CC(=O)N1CCC[C@H](COc2cccc3c2C(N)=NS(=O)(=O)N3)C1 [Compound 2, (S)-1-(3-(((4-amino-2,2-dioxido-1H-benzo[c][1,2,6]thiadiazin-5-yl)oxy)methyl)piperidin-1-yl)-3-methylbutan-1-one] | – | – | – | – | – | remarkably improved stability to photo-degradation; also recorded: significantly enhances the photostability | decreases with decreasing pH | less than 20% | about 42% | about 15% | no compound remained | about 15% | about 5%

— patent US20170119033A1, “METHOD OF IMPROVING STABILITY OF SWEET ENHANCER AND COMPOSITION CONTAINING STABILIZED SWEET ENHANCER” (Senomyx, Inc., priority 2016, published 2017)
